Source: publication PMC2693028 (ChemMedChem, 2008)
Converted amounts (≈) assume the structure as drawn. “And” between values parts separate entries of the source, which are not always exact repeats. Equal entries are not always repeated. Where two headings read alike, the source gives them in different places.

Tests used:
[1] = target: Enoyl reducase (ENR) from Bacillus anthracis (BaENR) (Bacillus anthracis, UniProt A0A6L8PBX8); assay: biochemical; settings: for inhibition at 1 µM: read-out: % inhibition at 1μM
Chain of Enoyl reducase (ENR) from Bacillus anthracis (BaENR) (A0A6L8PBX8 1-256): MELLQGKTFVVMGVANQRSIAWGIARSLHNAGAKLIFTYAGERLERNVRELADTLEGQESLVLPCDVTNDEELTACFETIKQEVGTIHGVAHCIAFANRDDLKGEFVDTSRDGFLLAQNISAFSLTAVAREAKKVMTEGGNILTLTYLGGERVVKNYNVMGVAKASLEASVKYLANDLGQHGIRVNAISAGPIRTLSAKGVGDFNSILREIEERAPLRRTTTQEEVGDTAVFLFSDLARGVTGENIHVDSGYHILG

ΔANR B. anthracis = assay: microbe, parasite or virus in culture; format: cell-based, Bacillus anthracis
[2] = system: Staphylococcus aureus (ATCC strain 29213); assay: microbe, parasite or virus in culture; format: cell-based; settings: ATCC29213|MSSA
[3] = system: methicillin–resistant Staphylococcus aureus (ATCC strain 43300); assay: microbe, parasite or virus in culture; format: cell-based; settings: Staphylococcus aureus, ATCC43300|MRSA
[4] = system: vancomycin–resistant Enterococcus (VRE) (ATCC strain 51299); assay: microbe, parasite or virus in culture; format: cell-based; settings: Enterococcus, ATCC51299|VRE
[5] = system: Sterne strain B. anthracis; assay: microbe, parasite or virus in culture; format: cell-based, Bacillus anthracis; settings: Bacillus anthracis
[6] = system: Escherchia coli (ATCC strain 25922); assay: microbe, parasite or virus in culture; format: cell-based; settings: Escherichia coli, ATCC25922
[7] = system: Klebsiella pneumoniae (ATCC strain 700603); assay: microbe, parasite or virus in culture; format: cell-based; settings: Klebsiella pneumoniae, ATCC700603
[8] = system: Pseudomonas aeruginosa (ATCC strain 27853); assay: microbe, parasite or virus in culture; format: cell-based; settings: ATCC27853
[9] = system: Enterococcus fecalis (ATCC strain 29212); assay: microbe, parasite or virus in culture; format: cell-based; settings: Enterococcus, ATCC29212
[10] = system: Listeria monocytogenes (10403S); assay: microbe, parasite or virus in culture; format: cell-based; settings: Listeria monocytogenes

| Compound | MIC (ΔANR B. anthracis; Bacillus anthracis) [µg/mL] | IC50 ([1]; IC50) | inhibition at 1 µM [1] [%] | also measured |
| --- | --- | --- | --- | --- |
| 3-[3-(2-Hydroxy-4-propylphenoxy)phenyl]propionic acid [Compound 50] |  |  |  | % inhibition at 1μM [1]: 17.9%; MIC (ΔANR B. anthracis): 14.9 µg/mL |
| O=C(O)c1cn(C2CC2)c2cc(N3CCNCC3)c(F)cc2c1=O [Cipro, reference compound] | 0.1 (≈ 0.302 µM) |  |  | MIC [2]: 0.4 µg/mL (≈ 1.21 µM); MIC [3]: 0.5 ± 0.2 µg/mL (≈ 1.51 µM); MIC [4]: 0.6 ± 0.2 µg/mL (≈ 1.81 µM); MIC [5]: 0.1 µg/mL (≈ 0.302 µM); MIC [6]: 0.1 µg/mL (≈ 0.302 µM); MIC [7]: 0.5 ± 0.1 µg/mL (≈ 1.51 µM); MIC [8]: 0.3 ± 0.1 µg/mL (≈ 0.905 µM); MIC [9]: 0.7 ± 0.1 µg/mL (≈ 2.11 µM); MIC [10]: 0.9 ± 0.3 µg/mL (≈ 2.72 µM) |
| Oc1ccc(Oc2ccccc2)c(O)c1 [Compound 1, 4-Phenoxybenzene-1,3-diol] | 64 (≈ 317 µM) | 6.3 ± 0.4 µM |  |  |
| O=[N+]([O-])c1ccc(Oc2ccccc2)c(O)c1 [Compound 2, 5-Nitro-2-phenoxyphenol] | 5.8 (≈ 25.1 µM) | > 50 µM |  |  |
| Oc1ccc(Oc2ccc(Cl)cc2O)cc1 [Compound 3, 5-Chloro-2-(4-hydroxyphenoxy)phenol] | > 64 |  | 2.6 |  |
| O=[N+]([O-])c1ccc(Oc2ccc(Cl)cc2O)cc1 [Compound 4, 5-Chloro-2-(4-nitrophenoxy)phenol] | 3.3 (≈ 12.4 µM) |  |  |  |
| O=[N+]([O-])c1ccccc1Oc1ccc(Cl)cc1O [Compound 5, 5-Chloro-2-(2-nitrophenoxy)phenol] | 13.3 (≈ 50.1 µM) | 7.7 ± 0.7 µM |  |  |
| Oc1cc(Cl)ccc1Oc1ccc(-c2ccccc2)cc1 [Compound 7, 2-(Biphenyl-4-yloxy)-5-chlorophenol] | 1.9 (≈ 6.4 µM) | > 6.25 µM |  |  |
| CCCc1ccc(Oc2ccc([N+](=O)[O-])cc2)c(O)c1 [Compound 8, 2-(4-Nitrophenoxy)-5-propylphenol] | 3.4 (≈ 12.4 µM) | 1.1 ± 0.1 µM |  |  |
| CCCc1ccc(Oc2cccc([N+](=O)[O-])c2)c(O)c1 [Compound 9, 2-(3-Nitrophenoxy)-5-propylphenol] | 1.7 (≈ 6.22 µM) | > 0.8 µM |  |  |
| CCCc1ccc(Oc2ccc([N+](=O)[O-])cc2[N+](=O)[O-])c(O)c1 [Compound 10, 2-(2,4-Dinitrophenoxy)-5-propylphenol] | 4 (≈ 12.6 µM) | 3.6 ± 0.8 µM |  |  |
| CCCc1ccc(Oc2ccc(C#N)cc2Cl)c(O)c1 [Compound 12, 3-Chloro-4-(2-hydroxy-4-propylphenoxy)benzonitrile] | 1.8 (≈ 6.26 µM) | > 0.8 µM |  |  |
| CCCc1ccc(Oc2cccc(CCO)c2)c(O)c1 [Compound 13, 2-[3-(2-Hydroxy-ethyl)phenoxy]-5-propylphenol] | 1.7 (≈ 6.24 µM) |  |  | IC50 [1]: 6 ± 1.5 µM |
| O=C(O)c1cc(Cl)ccc1Oc1ccccc1 [Compound 14, 5-Chloro-2-phenoxybenzoic acid] |  |  | 0 |  |
| CCCc1ccc(Oc2ccc(C(N)=O)cc2Cl)c(O)c1 [Compound 15, 3-Chloro-4-(2-hydroxy-4-propylphenoxy)benzamide] | 30.6 (≈ 100 µM) | 1.1 ± 0.1 µM |  |  |
| OCc1cc(Cl)ccc1Oc1ccccc1 [Compound 16, 5-Chloro-2-phenoxyphenylmethanol] |  |  | 1.8 |  |
| NC(=O)c1cc(Cl)ccc1Oc1ccccc1 [Compound 17, 5-Chloro-2-phenoxybenzamide] |  |  | 0 |  |
| CC(=O)Nc1ccc(Oc2ccc(Cl)cc2O)cc1 [Compound 18, N-[4-(4-Chloro-2-hydroxy-phenoxy)phenyl]acetamide] | 111 (≈ 400 µM) |  | 1.6 |  |
| CC(=O)Nc1ccccc1Oc1ccc(Cl)cc1O [Compound 19, N-[2-(4-Chloro-2-hydroxy-phenoxy)phenyl]acetamide] | 111 (≈ 400 µM) |  | 0 |  |
| Nc1ccc(Oc2ccc(Cl)cc2O)cc1 [Compound 20, 2-(4-Aminophenoxy)-5-chlorophenol] | 12 (≈ 50.9 µM) | 7 µM and 7.1 µM |  |  |
| CCCc1ccc(Oc2ccc(N)cc2)c(O)c1 [Compound 21, 2-(4-Aminophenoxy)-5-propylphenol] | > 97 | 8.8 ± 1 µM |  |  |
| Cc1ccc(S(=O)(=O)Nc2ccc(Oc3ccc(Cl)cc3O)cc2)cc1 [Compound 22, 4-(4-Chloro-2-hydroxyphenoxy)-1-(4 methylphenylsulphonamido) benzene] | 4.9 (≈ 12.6 µM) | > 12 µM |  |  |
| CC(=O)Nc1ccc(Oc2ccc(Cl)cc2O)cn1 [Compound 24, N-[5-(4-Chloro-2-hydroxyphenoxy)-pyridin-2-yl]acetamide] | > 112 | 4.1 µM |  |  |
| OCC(O)Cc1ccc(Oc2ccccc2)c(O)c1 (stereo not shown) [Compound 26, 3-(3-Hydroxy-4-phenoxyphenyl)propane-1,2-diol] | > 104 |  | 9.8 |  |

| Compound | MIC (ΔANR B. anthracis; Bacillus anthracis) [µg/mL] | IC50 ([1]; IC50) | inhibition at 1 µM [1] [%] | also measured |
| --- | --- | --- | --- | --- |
| CCCc1ccc(Oc2ccccc2)c(O)c1 [Compound 27, 2-Phenoxy-5-propylphenol] | 22.8 (≈ 99.9 µM) | > 0.8 µM |  |  |
| OCc1ccc(Oc2ccccc2)c(O)c1 [Compound 28, 5-Hydroxymethyl-2-phenoxyphenol] | 43 (≈ 199 µM) |  | 5 |  |
| CCCC(C)NCc1ccc(Oc2ccccc2)c(O)c1 (stereo not shown) [Compound 29, 5-[(1-Methyl-butylamino)methyl]-2-phenoxyphenol] | > 109 |  | 0 |  |
| Oc1cc(CN2CCCCC2)ccc1Oc1ccccc1 [Compound 30, 2-Phenoxy-5-piperidin-1-ylmethylphenol] | > 113 |  | 0 |  |
| Oc1cc(CNCc2ccccc2)ccc1Oc1ccccc1 [Compound 31, 5-(Benzylaminomethyl)-2-phenoxyphenol] | > 122 |  | 7.9 |  |
| Oc1cc(Cl)ccc1Oc1ccc(Oc2ccc(Cl)cc2O)cc1 [Compound 32, 2-[4-(2-Hydroxy-4-Chlorophenoxy)phenoxy]-5-chlorophenol] | > 145 |  | 15.5 |  |
| Oc1cc(Cl)ccc1Oc1cccc(Oc2ccc(Cl)cc2O)c1 [Compound 33, 2-[3-(2-Hydroxy-4-chlorophenoxy)phenoxy]-5-chlorophenol] | 2.3 (≈ 6.33 µM) |  | 9.9 |  |
| CCCc1ccc(Oc2cccc(Oc3ccc(CCC)cc3O)c2)c(O)c1 [Compound 34, 2-[3-(2-Hydroxy-4-propylphenoxy)phenoxy]-5-Propylphenol] | 1.2 (≈ 3.17 µM) |  | 20.6 |  |
| CCCc1ccc(Oc2ccc(Oc3ccc(CCC)cc3O)cc2)c(O)c1 [Compound 35, 2-[4-(2-Hydroxy-4-propylphenoxy)phenoxy]-5-propylphenol] | > 151 |  | 10 |  |
| CCCc1ccc(Oc2cccc(-c3ccccc3)c2)c(O)c1 [Compound 36, 2-(Biphenyl-3-yloxy)-5-propylphenol] | 1.9 (≈ 6.24 µM) |  |  | IC50 [1]: 0.5 ± 0.1 µM |
| CCCc1ccc(Oc2cccc(C(=O)OC)c2)c(O)c1 [Compound 37, 3-(2-Hydroxy-4-propylphenoxy)benzoic acid methyl ester] | 3.6 (≈ 12.6 µM) | 2 ± 0.3 µM |  |  |
| CCCc1ccc(Oc2cccc(C(=O)O)c2)c(O)c1 [Compound 39, 3-(2-Hydroxy-4-propylphenoxy)benzoic acid] | 6.8 (≈ 25 µM) |  | 9.2 |  |
| CCCc1ccc(Oc2ccc(C(C)=O)cc2)c(O)c1 [Compound 40, 1-[4-(2-Hydroxy-4-propylphenoxy)phenyl]ethanone] | 13.5 (≈ 49.9 µM) | 0.8 ± 0.1 µM |  |  |
| CCCc1ccc(Oc2ccc(SC)cc2)c(O)c1 [Compound 41, 2-(4-Methylsulfanylphenoxy)-5-propylphenol] | 13.5 (≈ 49.2 µM) | 0.6 µM |  |  |
| CCCc1ccc(Oc2ccc(C(C)O)cc2)c(O)c1 (stereo not shown) [Compound 42, 2-[4-(1-Hydroxyethyl)phenoxy]-5-propylphenol] | 54.5 (≈ 200 µM) |  | 17.1 |  |
| CCCc1ccc(Oc2ccc([S+](C)[O-])cc2)c(O)c1 (stereo not shown) [Compound 43, 2-(4-Methanesulfinylphenoxy)-5-propylphenol] | 116 (≈ 399 µM) | 3.6 ± 0.3 µM |  |  |
| CCCc1ccc(Oc2ccc(S(C)(=O)=O)cc2)c(O)c1 [Compound 44, 2-(4-Methanesulfonylphenoxy)-5-propylphenol] | 61.3 (≈ 200 µM) | 2.2 ± 0.3 µM |  |  |
| CCCc1ccc(Oc2cccc(N(C)C)c2)c(O)c1 [Compound 45, 2-(3-Dimethylaminophenoxy)-5-propylphenol] | 13.6 (≈ 50.1 µM) |  | 12.6 |  |
| CCCc1ccc(Oc2cccc(C(F)(F)F)c2)c(O)c1 [Compound 46, 5-Propyl-2-(3-trifluoromethylphenoxy)phenol] | 7.4 (≈ 25 µM) |  |  | IC50 [1]: 1.24 µM |
| CCCc1ccc(Oc2cccc(C=CC(=O)OC)c2)c(O)c1 [Compound 48, 3-[3-(2-Hydroxy-4-propylphenoxy)phenyl]acrylic acid methyl ester] | 2 (≈ 6.4 µM) | > 6.25 µM |  |  |
| CCCc1ccc(Oc2cccc(CCC(=O)OC)c2)c(O)c1 [Compound 49, 3-[3-(2-Hydroxy-4-propylphenoxy)phenyl]propionic acid methyl ester] | 7.9 (≈ 25.1 µM) | 7.5 ± 1.9 µM |  |  |
| CCCc1ccc(Oc2cccc(CCC(=O)O)c2)c(O)c1 [Compound 51, 3-[3-(2-Hydroxy-4-propylphenoxy)phenyl]propionic acid] | 60.1 (≈ 200 µM) |  | 17.6 |  |
| Clc1ccc(Oc2ccc(Cl)cc2Oc2cccnc2)c(Cl)c1 [Compound 52, 3-[5-Chloro-2-(2,4-dichlorophenoxy)phenoxy]pyridine] |  |  | 0.5 |  |
